Laboratory results as given in US8575338B2, “Pyrimidine, pyridine and triazine derivatives as maxi-K channel openers” (Mitsubishi Tanabe Pharma Corporation, priority 2008, dated 2013).
Values belong to the compound of their own block, whether it stands above or below them.

Tests used:
[1] = tested on: rhythmic bladder contractions; assay: Inhibitory effect on the rhythmic bladder contractions in anesthetized rats; format: in vivo, rat; conditions: 10 mg/kg
Description: Inhibitory Effect on the Rhythmic Bladder Contractions in Anesthetized Rats
Female Sprague-Dawley rats (9 to 12 weeks old weighing between 200 to 300 g) were anethethized with urethane (subcutaneously administered with a dose of 1.2 g/kg). Both ureters were cannulated to excrete urine. A cannula was inserted into the bladder via the urethra and secured with a ligature around the urethral opening and connected to a three-way stopcock. The ends were connected to a pressure transducer for measurement of bladder pressure and to a infusion pump for intravesical infusion of saline. A cannula was inserted in the femoral vein for intravenous (i.v.) drug administration. Following a over 20 minute post-surgical stabilization period and emptying of urine in the bladder, saline was infused into the bladder (50 μl/min) to evoke the micturition reflex. After the rhythmic bladder contractions had occurred, the saline infusion rate into the bladder was changed to 5 μl/min in order to maintain these contractions. Compounds were administered after stable rhythmic bladder contraction was obtained over 15 minutes. All compounds were dissolved in saline containing 10% dimethyl acetamide for intravenous administration (1 ml/kg). When iberiotoxin, a large conductance calcium-activated K channel blocker (0.15 mg/kg, i.v.) was administered for comparison purposes, it was administered 5 minutes before drug administration.
The frequencies (contractions per minute) of rhythmic bladder contractions were calculated for 10 minutes before and after drug administration. The efficacy of compounds expressed as percent of inhibition in frequency, which calculated from the following formula: (1−frequency after dosing/frequency before dosing)×100(%)

human BKαβ1 channels = biological target: T1, human BKαβ1 channels (Homo sapiens, UniProt Q12791); assay: BK current in CHO cells expressing human BKαβ1 (PatchXpress whole-cell patch clamp), EC100; format: cell-based; conditions: drug concentration causing 100% increase of BK current
T1 construct: expressed in transfected cells; host or cells: CHO cells (G418 and hygromycin selection)
Experimental: Methods for Testing Compounds on Human BKαβ1 Channels Expressed Cho Cells
CHO cells expressing human BKαβ1 were cultured in T75 or 6 well cell culture cluster. Medium: DMEM/F12+10% FBS+0.5 mg/mL G418/genetecin+0.1 mg/mL Hygromycin. Split cells every 3-4 days at 80-90% confluence. Use cells for experiments 60-72 hrs after re-passage and at ˜90% confluence.
Trypsin solution (0.05% Trypsin+0.1% EDTA), Ca^2+ free PBS and culture medium were warmed to 37° C. Inspect the T75 flask for cell confluence. Remove culture medium and add warm Ca^2+ free PBS to wash cells. Remove Ca^2+ free PBS and add warm Trypsin solution. Put the T75 flask back to 37° C. incubator for about 4.5 minutes. Stop Trypsin activity by adding culture medium. Spin the cells down. Suspend cells in 120-160 μL external solution for BK current recording and use the cells as soon as possible.
PatchXpress Sealchip 16 electrodes (AVIVA Biosciences) and PatchXpress 7000A (Axon Instruments, Inc) were used for BK current recording. Flat bottom 1.5 mL glass vial (HiPep Laboratories) were used for containing external solutions (±compounds). The holes in the sealchip (equivalent to patch electrode) had resistance about 1.5 MΩ. Cell membrane capacitance was compensated and access resistance was also compensated by 40%. Voltage-clamp protocol: Holding voltage=0 mV. Record BK current during 200-ms steps between +80 to +120 mV in 10 mV increments and 2 sec inter-pulse interval. On-line digital leak subtraction was performed by a P/−4 procedure. After whole-cell configuration was established, 2 minute was used to optimize access resistance. Then the chamber was washed with control bath solution for 1 minute to remove excessive cells. Control bath solution was added with robotic pipette and control BK current was recorded after 1 minute equilibrium time. For each drug concentration, 45 μL drug solution was added three times with “suction before adding” mode which left old solution. For each drug addition, 1 minute equilibrium time was given. BK current was measured at each drug concentrations (usually within 3.5 minutes after first drug addition). Calculate % change of BK current at the voltage step when the control BK current first exceeding 200 pA. If the control BK current was less than 200 pA at 120 mV, the cell was not used. % changes were calculated as 100*(Id−Ic)/Ic, where Id was the current amplitude in the presence of drug and Ic was the control current amplitude.
EC100 was defined as the drug concentration causing 100% increase of BK current calculated by the method described above. EC100 was determined by the data points just below and above 100%. % Increase of BK current was plotted against log [drug concentration]. A straight line connected two data points flanking 100%. From this straight line, the concentration corresponding to 100% increase of BK current was determined as EC100.
Compounds were dissolved in DMSO to make 10 mM stock solutions. Subsequent dilutions were made with external solution. The testing drug concentrations were 0.1, 0.3, 1, 3 and 10 μM depending on the potency of compounds. The highest DMSO concentration was 0.1%. External solution (in mM): 140 NaCl, 4 KCl, 1 MgCl2, 2 CaCl2, 10 Glucose, 10 HEPES; pH=7.4 with NaOH. Internal solution (in mM): 140 KCl, 5 EGTA, 1 MgCl2, 5 MgATP, 0.2 CaCl2, 5 HEPES; pH=7.2 with KOH.

T1 sequence (Q12791 whole entry): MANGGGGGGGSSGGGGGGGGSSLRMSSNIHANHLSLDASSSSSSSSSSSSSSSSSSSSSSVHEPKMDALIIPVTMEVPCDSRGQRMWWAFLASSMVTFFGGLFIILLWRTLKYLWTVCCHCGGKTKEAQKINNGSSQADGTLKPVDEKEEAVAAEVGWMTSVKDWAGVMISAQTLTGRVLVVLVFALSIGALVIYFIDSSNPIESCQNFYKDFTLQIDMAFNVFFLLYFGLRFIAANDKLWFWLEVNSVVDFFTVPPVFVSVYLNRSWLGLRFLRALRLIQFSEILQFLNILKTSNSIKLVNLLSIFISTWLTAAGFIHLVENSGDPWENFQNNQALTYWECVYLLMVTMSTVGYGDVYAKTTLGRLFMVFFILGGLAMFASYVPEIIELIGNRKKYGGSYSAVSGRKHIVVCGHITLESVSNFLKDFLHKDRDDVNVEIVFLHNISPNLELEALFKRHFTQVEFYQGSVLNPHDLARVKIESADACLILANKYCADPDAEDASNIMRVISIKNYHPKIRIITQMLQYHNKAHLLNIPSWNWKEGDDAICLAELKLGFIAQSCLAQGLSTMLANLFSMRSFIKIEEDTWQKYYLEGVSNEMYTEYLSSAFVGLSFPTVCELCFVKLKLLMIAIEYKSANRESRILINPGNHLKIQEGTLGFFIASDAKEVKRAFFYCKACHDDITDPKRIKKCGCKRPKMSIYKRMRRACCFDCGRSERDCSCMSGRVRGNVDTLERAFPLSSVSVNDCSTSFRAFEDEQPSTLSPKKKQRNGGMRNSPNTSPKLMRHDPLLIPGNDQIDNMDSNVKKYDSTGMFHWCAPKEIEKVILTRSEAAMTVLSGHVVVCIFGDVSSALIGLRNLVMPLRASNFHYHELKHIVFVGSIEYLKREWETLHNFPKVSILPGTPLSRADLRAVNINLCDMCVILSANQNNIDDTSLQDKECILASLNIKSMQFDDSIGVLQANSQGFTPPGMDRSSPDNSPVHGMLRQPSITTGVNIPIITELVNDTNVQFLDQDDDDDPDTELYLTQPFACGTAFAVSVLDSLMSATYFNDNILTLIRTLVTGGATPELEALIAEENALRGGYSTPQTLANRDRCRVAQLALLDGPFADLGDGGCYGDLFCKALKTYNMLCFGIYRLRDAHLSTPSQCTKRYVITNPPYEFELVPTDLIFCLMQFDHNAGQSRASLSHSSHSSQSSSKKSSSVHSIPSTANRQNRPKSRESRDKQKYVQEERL
T1 sequence (Q16558 whole entry partner): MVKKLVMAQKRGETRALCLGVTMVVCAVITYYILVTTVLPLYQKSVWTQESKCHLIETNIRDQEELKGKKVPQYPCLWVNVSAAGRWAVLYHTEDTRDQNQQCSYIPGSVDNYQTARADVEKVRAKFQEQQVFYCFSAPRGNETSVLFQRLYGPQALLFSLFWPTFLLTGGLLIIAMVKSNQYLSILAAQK

Compound: COC[C@@H]1CCCN1c1cc(OC2(C(=O)[O-])CC2)nc(-c2cc(Cl)c(Cl)s2)n1.[Na+] [Example 5]
percent of inhibition in frequency of rhythmic bladder contractions ([1]; anesthetized female Sprague-Dawley rats, i.v., 10 minutes before vs after dosing): 78%
EC100 (human BKαβ1 channels): 0.78 µM

Compound: COC[C@@H]1CCCN1c1cc(OC(C)(C)C(=O)[O-])nc(-c2ccc(Cl)c(F)c2)n1.[Na+] [Example 12]
percent of inhibition in frequency of rhythmic bladder contractions ([1]; anesthetized rats, intravenous): A (A: inhibition(%) > 50)
EC100 (human BKαβ1 channels): 1.39 µM

Compound: CC(C)(Oc1cc(N2CCC[C@H]2CF)nc(-c2ccc(Cl)c(F)c2)n1)C(=O)[O-].[Na+] [Example 22]
percent of inhibition in frequency of rhythmic bladder contractions ([1]; anesthetized rats, intravenous): A (A: inhibition(%) > 50)

Compound: CCC(CC)(Oc1cc(N2CCC[C@H]2COC)nc(-c2ccc(Cl)c(F)c2)n1)C(=O)[O-].[Na+] [Example 31]
percent of inhibition in frequency of rhythmic bladder contractions ([1]; anesthetized rats, intravenous): B (B: 50 > inhibition(%) > 30)
EC100 (human BKαβ1 channels): 0.14 µM

Compound: CC(C)OC1CCN(c2cc(OC3(C(=O)[O-])CC3)nc(-c3ccc(Cl)c(F)c3)n2)CC1.[Na+] [Example 52]
percent of inhibition in frequency of rhythmic bladder contractions ([1]; anesthetized rats, intravenous): A (A: inhibition(%) > 50)

Compound: O=C([O-])C1(Oc2cc(N3CCC(CCO)CC3)nc(-c3ccc(Cl)c(F)c3)n2)CCCC1.[Na+] [Example 59]
percent of inhibition in frequency of rhythmic bladder contractions ([1]; anesthetized rats, intravenous): B (B: 50 > inhibition(%) > 30)
EC100 (human BKαβ1 channels): 0.51 µM

Compound: CC(C)(Oc1cc(-c2cccc3cccnc23)nc(-c2ccc(Cl)c(F)c2)n1)C(=O)[O-].[Na+] [Example 497]
percent of inhibition in frequency of rhythmic bladder contractions ([1]; anesthetized rats, intravenous): B (B: 50 > inhibition(%) > 30)
EC100 (human BKαβ1 channels): 0.31 µM

Compound: COCc1ccc(-c2cc(OC3(C(=O)[O-])CC3)nc(-c3ccc(Cl)c(F)c3)n2)cc1.[Na+] [Example 527]
percent of inhibition in frequency of rhythmic bladder contractions ([1]; anesthetized rats, intravenous): A (A: inhibition(%) > 50)
EC100 (human BKαβ1 channels): 0.37 µM

Compound: COc1ccc(-c2cc(OC3(C(=O)[O-])CC3)nc(-c3ccc(Cl)c(F)c3)n2)cn1.[Na+] [Example 534]
percent of inhibition in frequency of rhythmic bladder contractions ([1]; anesthetized rats, intravenous): B (B: 50 > inhibition(%) > 30)
EC100 (human BKαβ1 channels): 0.36 µM

Compound: COc1ccc(-c2cc(OC3(C(=O)[O-])CCCC3)nc(-c3ccc(Cl)c(F)c3)n2)cn1.[Na+] [Example 567]
percent of inhibition in frequency of rhythmic bladder contractions ([1]; anesthetized rats, intravenous): B (B: 50 > inhibition(%) > 30)

Compound: CCCOC1CCN(c2cc(OC3(C(=O)[O-])CC3)nc(-c3ccc(C(F)(F)F)cc3)n2)CC1.[Na+] [Example 693]
percent of inhibition in frequency of rhythmic bladder contractions ([1]; anesthetized rats, intravenous): A (A: inhibition(%) > 50)

Compound: COc1ccc(CN(C)c2cc(OC3(C(=O)O)CC3)nc(-c3ccc(F)cc3)n2)cc1 [Example 1100]
EC100 (human BKαβ1 channels): 0.38 µM

Compound: O=C([O-])C1(Oc2cc(N3CCc4cc(F)ccc43)nc(-c3ccc(F)cc3)n2)CC1.[Na+] [Example 1108]
EC100 (human BKαβ1 channels): 0.36 µM

Compound: O=C([O-])C1(Oc2cc(N3CCc4ccc(F)cc4C3)nc(-c3ccc(F)cc3)n2)CC1.[Na+] [Example 1109]
EC100 (human BKαβ1 channels): 0.07 µM

Compound: O=C([O-])C1(Oc2cc(N3CCc4ccc(Cl)cc4C3)nc(-c3ccc(F)cc3)n2)CC1.[Na+] [Example 1111]
EC100 (human BKαβ1 channels): 0.12 µM

Compound: CCCOC1CCN(c2nc(-c3ccc(Cl)cc3)nc(OC3(C(=O)O)CC3)c2C)CC1 [Example 1114]
EC100 (human BKαβ1 channels): 0.41 µM

Compound: COCC1CCN(c2nc(-c3ccc(Cl)cc3)nc(OC3(C(=O)O)CC3)c2C)CC1 [Example 1115]
EC100 (human BKαβ1 channels): 1.74 µM

Now from value to compound:

EC100 (human BKαβ1 channels): 1.31 µM
Compound: CCOCC1CCN(c2nc(-c3ccc(Cl)cc3)nc(OC3(C(=O)O)CC3)c2C)CC1 [Example 1116]

EC100 (human BKαβ1 channels): 0.42 µM
Compound: Cc1c(OC2(C(=O)O)CC2)nc(-c2ccc(Cl)cc2)nc1N1CCC(OCC2CC2)CC1 [Example 1118]

EC100 (human BKαβ1 channels): 0.73 µM
Compound: CCCCOC1CCN(c2nc(-c3ccc(Cl)cc3)nc(OC3(C(=O)[O-])CC3)c2C)CC1.[Na+] [Example 1119]

EC100 (human BKαβ1 channels): 0.9 µM
Compound: CCOCC1CCN(c2nc(-c3ccc(F)cc3)nc(OC3(C(=O)O)CC3)c2C)CC1 [Example 1122]

EC100 (human BKαβ1 channels): 0.95 µM
Compound: COCCC1CCN(c2nc(-c3ccc(F)cc3)nc(OC3(C(=O)O)CC3)c2C)CC1 [Example 1123]

EC100 (human BKαβ1 channels): 0.5 µM
Compound: CCCCOC1CCN(c2nc(-c3ccc(F)cc3)nc(OC3(C(=O)[O-])CC3)c2C)CC1.[Na+] [Example 1125]

EC100 (human BKαβ1 channels): 0.77 µM
Compound: COCCCC1CCN(c2nc(-c3ccc(F)cc3)nc(OC3(C(=O)[O-])CC3)c2C)CC1.[Na+] [Example 1126]

EC100 (human BKαβ1 channels): 0.61 µM
Compound: CCCOC1CCN(c2nc(-c3ccc(Cl)cc3)nc(OC3(C(=O)[O-])CC3)c2F)CC1.[Na+] [Example 1129]

EC100 (human BKαβ1 channels): 0.23 µM
Compound: CCOCC1CCN(c2nc(-c3ccc(Cl)cc3)nc(OC3(C(=O)[O-])CC3)c2F)CC1.[Na+] [Example 1131]

EC100 (human BKαβ1 channels): 0.41 µM
Compound: COCCC1CCN(c2nc(-c3ccc(Cl)cc3)nc(OC3(C(=O)[O-])CC3)c2F)CC1.[Na+] [Example 1132]

EC100 (human BKαβ1 channels): 1.29 µM
Compound: CCCOCC1CCN(c2nc(-c3ccc(Cl)cc3)nc(OC3(C(=O)[O-])CC3)c2F)CC1.[Na+] [Example 1133]

EC100 (human BKαβ1 channels): 0.13 µM
Compound: CCCOC1CCN(c2nc(OC3(C(=O)O)CC3)cc(-c3ccc(C)c(Cl)c3)n2)CC1 [Example 1148]

EC100 (human BKαβ1 channels): 0.34 µM
Compound: CCCOC1CCN(c2nc(OC3(C(=O)O)CC3)cc(-c3ccc(F)c(C(F)(F)F)c3)n2)CC1 [Example 1153]

EC100 (human BKαβ1 channels): 1.03 µM
Compound: CC(C)COC1CCN(c2nc(OC3(C(=O)O)CC3)cc(-c3ccc(Cl)cc3)n2)CC1 [Example 1182]

EC100 (human BKαβ1 channels): 0.02 µM
Compound: O=C(O)C1(Oc2cc(-c3ccc(Cl)cc3)nc(N3CCc4ccc(F)cc4C3)n2)CC1 [Example 1191]

EC100 (human BKαβ1 channels): 0.04 µM
Compound: O=C(O)C1(Oc2cc(-c3ccc(Cl)cc3)nc(N3CCc4cc(F)ccc4C3)n2)CC1 [Example 1192]

EC100 (human BKαβ1 channels): 0.15 µM
Compound: CCOCC1CCN(c2nc(OC3(C(=O)[O-])CC3)cc(-c3ccc(Cl)s3)n2)CC1.[Na+] [Example 1197]

EC100 (human BKαβ1 channels): 0.2 µM
Compound: O=C([O-])C1(Oc2cc(-c3ccc(Cl)s3)nc(N3CCc4ccc(F)cc4C3)n2)CC1.[Na+] [Example 1202]

EC100 (human BKαβ1 channels): 0.01 µM
Compound: O=C(O)C1(Oc2cc(-c3ccc(Cl)s3)nc(N3CCc4cc(F)ccc4C3)n2)CC1 [Example 1203]

EC100 (human BKαβ1 channels): 0.96 µM
Compound: COCCC1CCN(c2nc(OC3(C(=O)O)CC3)cc(-c3cc(C)c(Cl)s3)n2)CC1 [Example 1208]

EC100 (human BKαβ1 channels): 0.39 µM
Compound: COCCCC1CCN(c2nc(OC3(C(=O)[O-])CC3)cc(-c3cc(C)c(Cl)s3)n2)CC1.[Na+] [Example 1215]

EC100 (human BKαβ1 channels): 0.54 µM
Compound: CCOC1CCN(c2nc(OC3(C(=O)O)CC3)cc(-c3cc(Cl)c(Cl)s3)n2)CC1 [Example 1216]

EC100 (human BKαβ1 channels): 0.19 µM
Compound: COCC1CCN(c2nc(OC3(C(=O)O)CC3)cc(-c3cc(Cl)c(Cl)s3)n2)CC1 [Example 1217]

EC100 (human BKαβ1 channels): 0.15 µM
Compound: COCCC1CCN(c2nc(OC3(C(=O)O)CC3)cc(-c3cc(Cl)c(Cl)s3)n2)CC1 [Example 1218]

EC100 (human BKαβ1 channels): 0.12 µM
Compound: O=C(O)C1(Oc2cc(OCc3ccc(F)cc3)nc(-c3ccc(Cl)cc3)n2)CC1 [Example 1281]

EC100 (human BKαβ1 channels): 1.2 µM
Compound: O=C(O)C1(Oc2cc(-c3ccc(Cl)cc3)nc(OCc3ccc(F)c(F)c3)n2)CC1 [Example 1286]
